In patent US20110230481A2, “DERIVATIVES OF TETRABROMOBENZIMIDAZOLE, A PROCESS FOR THE PREPARATION THEREOF, A PHARMACEUTICAL COMPOSITION COMPRISING THE SAME, A METHOD OF USING THE SAME, A METHOD FOR MODULATING OR REGULATING SERINE/THREONINE KINASES, AND SERINE/THREONINE KINASES MODULATING AGENT” (SELVITA S.A., priority 2009, published 2011):

How the values were obtained:
Experiment in all cases: KINOMEscan Max
Format in all cases: binding
CDC2L5 = target: T1, CDC2L5 (Homo sapiens, UniProt Q14004); conditions: 1 μM
T1 construct: DNA tag (qPCR read-out); purchased Ambit Kinomescan
How it was run: (§1)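 In this platform each kinase carries a DNA tag and is offered an immobilized ligand aimed at the active site; test compound competes for binding, and the amount of kinase held on the ligand is measured by qPCR.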

DAPK2 = target: T2, DAPK2 (Homo sapiens, UniProt Q9UIK4)
T2 construct: DNA tag (qPCR read-out)
How it was run: as §1

LIMK2 = target: T3, LIMK2 (Homo sapiens, UniProt P53671)
T3 construct: purchased Ambit Kinomescan (contract screening)
How it was run: as §1

EGFR(L858R.T790M) = target: T4, EGFR(L858R.T790M) (Homo sapiens, UniProt P00533, L858R/T790M); conditions: 1 μM
T4 construct: purchased Ambit (KINOMEscan Max panel service)
How it was run: as §1

GSK3A = target: T5, GSK3A (Homo sapiens, UniProt P49840)
T5 construct: purchased Ambit Kinomescan (contract panel, KINOMEscan Max)
How it was run: as §1

KIT(V559D.T670I) = target: T6, KIT(V559D.T670I) (Homo sapiens, UniProt P10721, T670I/V559D)
T6 construct: purchased Ambit Kinomescan (contract panel)
How it was run: as §1

STK36 = target: T7, STK36 (Homo sapiens, UniProt Q9NRP7)
T7 construct: DNA tag (qPCR read-out)
How it was run: as §1

PIK3CA(M1043I) = target: T8, PIK3CA(M1043I) (Homo sapiens, UniProt P42336, M1043I)
T8 construct: DNA tag (qPCR read-out)
T8 sequence (P42336 whole entry M1043I): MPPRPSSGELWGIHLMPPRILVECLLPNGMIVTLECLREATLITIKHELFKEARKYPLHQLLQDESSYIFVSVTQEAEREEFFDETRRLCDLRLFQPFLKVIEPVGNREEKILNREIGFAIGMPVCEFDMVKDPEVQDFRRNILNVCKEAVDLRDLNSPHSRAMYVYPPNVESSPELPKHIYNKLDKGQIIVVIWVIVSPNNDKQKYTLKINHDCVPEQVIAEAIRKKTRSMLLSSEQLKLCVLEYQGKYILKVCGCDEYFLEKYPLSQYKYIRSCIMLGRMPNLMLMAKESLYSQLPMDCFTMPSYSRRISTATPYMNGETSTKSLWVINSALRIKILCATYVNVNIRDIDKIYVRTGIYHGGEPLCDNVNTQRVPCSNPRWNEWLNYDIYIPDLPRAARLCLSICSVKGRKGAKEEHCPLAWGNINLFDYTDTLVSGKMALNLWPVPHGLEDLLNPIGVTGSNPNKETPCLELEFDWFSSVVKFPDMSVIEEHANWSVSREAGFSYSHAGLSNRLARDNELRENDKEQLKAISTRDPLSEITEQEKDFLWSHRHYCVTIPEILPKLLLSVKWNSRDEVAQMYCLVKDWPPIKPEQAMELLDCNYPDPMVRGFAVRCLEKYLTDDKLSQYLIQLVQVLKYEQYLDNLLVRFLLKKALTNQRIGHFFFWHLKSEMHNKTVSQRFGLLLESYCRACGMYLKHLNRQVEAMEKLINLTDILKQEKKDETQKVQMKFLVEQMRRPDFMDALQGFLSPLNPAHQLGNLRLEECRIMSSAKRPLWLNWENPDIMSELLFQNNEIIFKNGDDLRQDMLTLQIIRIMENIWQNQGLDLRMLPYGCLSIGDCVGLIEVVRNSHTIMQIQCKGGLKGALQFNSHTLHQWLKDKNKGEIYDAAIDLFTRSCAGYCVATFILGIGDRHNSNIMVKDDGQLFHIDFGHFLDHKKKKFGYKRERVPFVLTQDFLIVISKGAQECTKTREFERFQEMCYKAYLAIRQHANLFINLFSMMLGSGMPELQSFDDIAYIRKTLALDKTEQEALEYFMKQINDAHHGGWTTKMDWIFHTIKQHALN
How it was run: as §1

[1] = target: T9, RSK2(Kin.Dom.1-N-terminal) (Homo sapiens, UniProt P51812)
T9 construct: RSK2(Kin.Dom.1-N-terminal); DNA tag (qPCR read-out)
T9 sequence (P51812 68-327 limits assumed): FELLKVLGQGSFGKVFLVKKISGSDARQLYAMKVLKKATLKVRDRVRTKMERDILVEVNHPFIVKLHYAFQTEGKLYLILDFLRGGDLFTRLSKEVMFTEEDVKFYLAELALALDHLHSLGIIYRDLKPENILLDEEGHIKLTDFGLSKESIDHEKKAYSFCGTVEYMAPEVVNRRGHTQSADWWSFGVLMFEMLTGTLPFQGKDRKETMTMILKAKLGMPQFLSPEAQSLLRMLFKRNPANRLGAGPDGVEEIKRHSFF
How it was run: as §1

MTOR = MTOR (Homo sapiens, UniProt P42345)
How it was run: as §1

MELK = target: T10, MELK (Homo sapiens, UniProt Q14680)
T10 construct: purchased Ambit (KINOMEscan Max service)
T10 sequence (Q14680 whole entry): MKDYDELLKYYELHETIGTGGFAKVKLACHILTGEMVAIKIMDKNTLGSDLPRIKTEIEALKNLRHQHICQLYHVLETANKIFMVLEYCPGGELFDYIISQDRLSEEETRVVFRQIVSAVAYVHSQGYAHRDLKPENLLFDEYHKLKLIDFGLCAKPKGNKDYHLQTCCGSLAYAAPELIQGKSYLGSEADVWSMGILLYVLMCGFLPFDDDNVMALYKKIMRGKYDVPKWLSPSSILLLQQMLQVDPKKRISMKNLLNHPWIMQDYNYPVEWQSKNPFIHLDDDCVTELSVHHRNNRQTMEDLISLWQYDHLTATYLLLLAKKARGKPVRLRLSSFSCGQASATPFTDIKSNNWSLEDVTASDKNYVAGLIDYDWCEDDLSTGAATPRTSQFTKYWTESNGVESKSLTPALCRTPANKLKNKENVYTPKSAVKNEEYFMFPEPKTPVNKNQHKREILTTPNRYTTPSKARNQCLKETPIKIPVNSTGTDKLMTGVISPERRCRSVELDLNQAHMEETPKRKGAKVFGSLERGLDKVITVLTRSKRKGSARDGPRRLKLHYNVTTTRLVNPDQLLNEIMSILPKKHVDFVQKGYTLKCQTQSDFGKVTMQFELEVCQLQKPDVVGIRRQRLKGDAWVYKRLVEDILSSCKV
How it was run: as §1

EPHA3 = target: T11, EPHA3 (Homo sapiens, UniProt P29320)
T11 construct: DNA tag (qPCR read-out)
How it was run: as §1

SIK2 = target: T12, SIK2 (Homo sapiens, UniProt Q9H0K1)
T12 construct: DNA tag (qPCR read-out)
How it was run: as §1

ULK3 = target: T13, ULK3 (Homo sapiens, UniProt Q6PHR2); conditions: 1 μM
T13 construct: purchased Ambit Kinomescan (contract screening service)
How it was run: as §1

FER = target: T14, FER (Homo sapiens, UniProt P16591)
T14 construct: purchased Ambit Kinomescan (contract panel, KINOMEscan Max)
How it was run: as §1

LKB1 = target: T15, LKB1 (Homo sapiens, UniProt Q15831)
T15 construct: purchased Ambit Kinomescan (contract screening)
T15 sequence (Q15831 whole entry): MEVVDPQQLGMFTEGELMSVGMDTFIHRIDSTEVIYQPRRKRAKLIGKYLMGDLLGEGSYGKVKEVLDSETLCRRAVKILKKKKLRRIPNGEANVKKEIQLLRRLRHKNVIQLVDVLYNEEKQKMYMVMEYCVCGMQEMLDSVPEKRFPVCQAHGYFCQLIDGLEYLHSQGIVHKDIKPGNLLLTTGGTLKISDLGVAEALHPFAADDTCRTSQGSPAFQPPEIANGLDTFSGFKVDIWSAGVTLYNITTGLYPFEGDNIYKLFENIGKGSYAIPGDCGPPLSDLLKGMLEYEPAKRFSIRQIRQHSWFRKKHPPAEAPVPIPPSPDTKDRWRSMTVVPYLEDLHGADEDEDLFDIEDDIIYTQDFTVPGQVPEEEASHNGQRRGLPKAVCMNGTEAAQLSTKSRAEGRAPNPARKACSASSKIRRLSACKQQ
How it was run: as §1

VRK2 = VRK2 (Homo sapiens, UniProt Q86Y07)
How it was run: as §1

p38-delta = p38-delta (Homo sapiens, UniProt O15264)
How it was run: as §1

IKK-beta = target: T16, IKK-beta (Homo sapiens, UniProt O14920)
T16 construct: DNA tag (qPCR read-out)
How it was run: as §1

ZAK = ZAK (Homo sapiens, UniProt Q9NYL2)
How it was run: as §1

MST3 = MST3 (Homo sapiens, UniProt Q9Y6E0); conditions: 1 μM
How it was run: as §1

[2] = target: ABL1(E255K)-phosphorylated) (Homo sapiens, UniProt P00519, E255K)
How it was run: as §1

RIOK1 = target: T17, RIOK1 (Homo sapiens, UniProt Q9BRS2)
T17 construct: DNA tag (qPCR read-out)
How it was run: as §1

EGFR(E746-A750del) = target: T18, EGFR(E746-A750del) (Homo sapiens, UniProt P00533, DEL746-750); conditions: 1 μM
T18 construct: purchased Ambit (KINOMEscan Max service)
How it was run: as §1

MLK3 = MLK3 (Homo sapiens, UniProt Q16584); conditions: 1 μM
MLK3, sequence (Q16584 whole entry): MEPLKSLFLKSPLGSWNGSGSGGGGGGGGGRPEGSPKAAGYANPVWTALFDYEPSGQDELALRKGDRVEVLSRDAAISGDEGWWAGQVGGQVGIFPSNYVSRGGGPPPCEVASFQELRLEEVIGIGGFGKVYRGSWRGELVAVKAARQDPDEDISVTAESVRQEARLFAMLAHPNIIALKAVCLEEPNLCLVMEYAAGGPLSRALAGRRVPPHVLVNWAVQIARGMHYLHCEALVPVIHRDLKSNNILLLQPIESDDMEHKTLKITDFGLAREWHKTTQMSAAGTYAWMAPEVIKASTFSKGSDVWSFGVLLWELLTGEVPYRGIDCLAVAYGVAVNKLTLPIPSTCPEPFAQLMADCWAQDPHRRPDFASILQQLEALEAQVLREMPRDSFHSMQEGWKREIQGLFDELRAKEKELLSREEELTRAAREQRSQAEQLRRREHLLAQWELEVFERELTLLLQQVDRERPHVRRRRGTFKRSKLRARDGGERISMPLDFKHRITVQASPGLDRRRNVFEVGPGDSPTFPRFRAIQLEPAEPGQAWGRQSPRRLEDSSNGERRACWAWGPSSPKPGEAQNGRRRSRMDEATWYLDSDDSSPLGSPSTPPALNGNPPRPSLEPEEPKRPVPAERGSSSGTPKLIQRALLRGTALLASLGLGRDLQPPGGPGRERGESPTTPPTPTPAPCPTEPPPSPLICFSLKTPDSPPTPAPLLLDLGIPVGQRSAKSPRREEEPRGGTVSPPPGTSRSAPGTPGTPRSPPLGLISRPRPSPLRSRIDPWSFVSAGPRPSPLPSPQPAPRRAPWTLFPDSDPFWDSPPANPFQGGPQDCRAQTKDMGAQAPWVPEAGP
How it was run: as §1

MEK2 = MEK2 (Homo sapiens, UniProt P36507)
How it was run: as §1

TRKA = target: T19, TRKA (Homo sapiens, UniProt P04629)
T19 construct: purchased Ambit Kinomescan (contract screening service)
How it was run: as §1

YANK2 = target: T20, YANK2 (Homo sapiens, UniProt Q9NY57)
T20 construct: purchased Ambit Kinomescan (contract screening service)
T20 sequence (Q9NY57 whole entry): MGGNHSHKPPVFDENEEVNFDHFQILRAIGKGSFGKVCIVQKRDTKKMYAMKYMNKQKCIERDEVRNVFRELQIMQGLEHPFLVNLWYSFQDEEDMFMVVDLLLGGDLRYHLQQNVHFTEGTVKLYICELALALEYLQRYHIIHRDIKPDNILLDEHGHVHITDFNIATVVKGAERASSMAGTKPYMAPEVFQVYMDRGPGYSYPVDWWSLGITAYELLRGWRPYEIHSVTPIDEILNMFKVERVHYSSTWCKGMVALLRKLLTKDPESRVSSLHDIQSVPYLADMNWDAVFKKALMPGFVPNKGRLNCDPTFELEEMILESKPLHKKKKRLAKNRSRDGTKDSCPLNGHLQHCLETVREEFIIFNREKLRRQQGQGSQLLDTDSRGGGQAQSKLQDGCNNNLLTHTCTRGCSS
How it was run: as §1

[3] = target: T21, RPS6KA4(Kin.Dom.2-C-terminal) (Homo sapiens, UniProt O75676)
T21 construct: RPS6KA4(Kin.Dom.2-C-terminal); purchased Ambit Kinomescan (contract screening)
T21 sequence (O75676 411-674 limits assumed): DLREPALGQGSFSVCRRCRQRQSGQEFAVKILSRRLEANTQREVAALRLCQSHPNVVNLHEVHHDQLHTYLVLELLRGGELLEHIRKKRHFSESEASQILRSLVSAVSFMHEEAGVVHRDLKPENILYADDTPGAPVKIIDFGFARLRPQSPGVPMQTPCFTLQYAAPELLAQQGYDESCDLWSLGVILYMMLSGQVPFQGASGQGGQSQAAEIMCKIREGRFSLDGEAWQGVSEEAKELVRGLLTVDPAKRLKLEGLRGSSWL
How it was run: as §1

ERK4 = target: T22, ERK4 (Homo sapiens, UniProt P31152)
T22 construct: purchased Ambit Kinomescan (contract screening)
How it was run: as §1

MEK5 = MEK5 (Homo sapiens, UniProt Q13163)
How it was run: as §1

PAK7 = target: T23, PAK7 (Homo sapiens, UniProt Q9P286)
T23 construct: DNA tag (qPCR read-out)
How it was run: as §1

PDGFRA = target: T24, PDGFRA (Homo sapiens, UniProt P16234)
T24 construct: DNA tag (qPCR read-out)
T24 sequence (P16234 24-1089): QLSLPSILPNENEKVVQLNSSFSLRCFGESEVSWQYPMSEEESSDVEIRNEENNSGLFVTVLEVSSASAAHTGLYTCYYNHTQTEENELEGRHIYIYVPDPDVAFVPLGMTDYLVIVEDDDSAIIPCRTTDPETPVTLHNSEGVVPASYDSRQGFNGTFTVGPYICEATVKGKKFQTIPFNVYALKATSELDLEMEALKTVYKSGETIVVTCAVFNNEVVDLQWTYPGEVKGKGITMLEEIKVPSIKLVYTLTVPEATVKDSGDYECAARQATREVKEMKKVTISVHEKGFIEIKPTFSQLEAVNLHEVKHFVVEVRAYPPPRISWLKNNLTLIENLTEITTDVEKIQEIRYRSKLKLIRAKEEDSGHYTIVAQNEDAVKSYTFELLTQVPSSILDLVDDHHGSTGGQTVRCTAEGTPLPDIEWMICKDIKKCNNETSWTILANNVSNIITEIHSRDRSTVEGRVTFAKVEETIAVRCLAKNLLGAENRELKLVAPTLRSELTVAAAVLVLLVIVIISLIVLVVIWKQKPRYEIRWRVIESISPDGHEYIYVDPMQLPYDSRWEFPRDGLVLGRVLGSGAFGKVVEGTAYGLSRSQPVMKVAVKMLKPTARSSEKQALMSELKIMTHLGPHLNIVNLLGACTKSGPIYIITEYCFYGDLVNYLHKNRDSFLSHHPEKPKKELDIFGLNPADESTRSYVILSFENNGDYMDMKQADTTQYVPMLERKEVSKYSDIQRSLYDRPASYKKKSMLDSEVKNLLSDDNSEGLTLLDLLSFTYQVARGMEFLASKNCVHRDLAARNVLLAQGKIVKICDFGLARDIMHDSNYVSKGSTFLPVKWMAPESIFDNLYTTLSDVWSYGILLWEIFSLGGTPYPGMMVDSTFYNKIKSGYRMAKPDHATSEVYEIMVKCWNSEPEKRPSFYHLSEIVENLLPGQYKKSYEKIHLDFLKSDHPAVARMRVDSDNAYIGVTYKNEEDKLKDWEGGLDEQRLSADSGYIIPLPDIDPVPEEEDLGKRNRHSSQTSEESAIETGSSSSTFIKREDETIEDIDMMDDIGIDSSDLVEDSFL
How it was run: as §1

NCCCNc1nc2c(Br)c(Br)c(Br)c(Br)c2[nH]1 [Compound 11, N-(3-aminopropyl)-4,5,6,7-tetrabromo-1H-benzo[d]imidazol-2-amine]
% binding (CDC2L5): 24%
remaining binding at 1 µM (DAPK2): 90%
remaining binding at 1 µM (LIMK2): 96%
% binding (EGFR(L858R.T790M)): 100%
remaining binding at 1 µM (GSK3A): 100%
remaining binding at 1 µM (KIT(V559D.T670I)): 100%
remaining binding at 1 µM (STK36): 100%
remaining binding at 1 µM (PIK3CA(M1043I)): 100%
remaining binding at 1 µM [1]: 100%
remaining binding at 1 µM (MTOR): 100%
remaining binding at 1 µM (MELK): 82%
remaining binding at 1 µM (EPHA3): 89%
remaining binding at 1 µM (SIK2): 100%
% binding (ULK3): 100%
remaining binding at 1 µM (FER): 100%
remaining binding at 1 µM (LKB1): 96%
remaining binding at 1 µM (VRK2): 79%
remaining binding at 1 µM (p38-delta): 100%
remaining binding at 1 µM (IKK-beta): 56%
remaining binding at 1 µM (ZAK): 98%
% binding (MST3): 98%
remaining binding at 1 µM [2]: 95%
remaining binding at 1 µM (RIOK1): 56%
% binding (EGFR(E746-A750del)): 72%
% binding (MLK3): 95%
remaining binding at 1 µM (MEK2): 100%
remaining binding at 1 µM (TRKA): 100%
remaining binding at 1 µM (YANK2): 100%
remaining binding at 1 µM [3]: 97%
remaining binding at 1 µM (ERK4): 98%
remaining binding at 1 µM (MEK5): 73%
remaining binding at 1 µM (PAK7): 90%
remaining binding at 1 µM (PDGFRA): 100%
